In US20250283110A1, “METHODS AND COMPOSITIONS FOR TRANSDUCTION OF NK CELLS” (ST. JUDE CHILDREN'S RESEARCH HOSPITAL, INC., priority 2021, published 2025):
Entries after “also recorded” stand apart in the source; their conditions may differ.

Key:
NK cells [1] = experiment: cells; assay type: cell-based; settings: Homo sapiens, 72 h; N=3; read-out: EC50 of YFP expression in NK cells
TBK1/IKKε = settings: Ref. 20; cited from earlier work
NK cells [2] = experiment: NK cell immunophenotyping by flow cytometry with and without inhibitor; assay type: cell-based, Human; settings: 2 μM for 24 hours, then 48 hours fresh media; N=3; paired two-tailed t-test treated vs untreated
Description: FIGS. 4A-4B show representative data relating to NK cell phenotype with and without treatment with a representative disclosed compound, MRT67307. Briefly, NK cells were treated with and without 2μMMRT67307 for 24 hours. Media was removed and replaced with fresh complete media and cells incubated for another 48 hours. Cells were immunophenotyped via flow cytometry. NK cells were identified as efluor455UV negative, CD3 negative, and CD56 positive.
250,000 NK cells were collected and washed twice in DPBS. Surface HER2-CAR detection was determined via immunolabeling with anti-F (ab′) 2-AF647 (109-606-006, Jackson Labs, Bar Harbor, ME, USA; 1:100), CD19-CAR was detected with PE conjugated recombinant human CD19 protein (3309HP, Creative Biomart, Shirley, NY, USA; 1:100), or YFP were utilized for detection on a BD FACS Lyric machine and analyzed with FlowJo v10 (BD). Immunophenotyping was performed on a BD Symphony flow cytometer. Antibodies used are delineated in below in Table 1.

Row | Structure (SMILES) | EC50 (NK cells [1]) | specificity for TBK1/IKKε (TBK1/IKKε) | effect on NK cell phenotype (NK cells [2])
1 | O=C(NCCCNc1nc(Nc2cccc(NC(=O)N3CCCC3)c2)ncc1I)c1cccs1 [BX-795] | 5 µM |  | 
2 | O=C(NCCCNc1nc(Nc2cccc(CN3CCOCC3)c2)ncc1C1CC1)C1CCC1 [MRT67307, N-[3-[[5-cyclopropyl-2-[3-(morpholin-4-ylmethyl)anilino]pyrimidin-4-yl]amino]propyl]cyclobutanecarboxamide] | 1.1 µM | more specific for TBK1/IKKε than BX-795 | no effect; also recorded: No parameter was significantly different
